Reference: BindingDB's records for patent US20250127913 (Lycia Therapeutics, 2025)

How the values were obtained:
[1] = target: Tumor necrosis factor (Homo sapiens, UniProt P01375); test: TNFα Binding Assay
Protocol: Table 15: TNFα binding was measured in black 96-well plates using a time-resolved FRET assay using a previously described fluorescence acceptor TNFα probe (Xiao et al J. Med. Chem. 2020). Biotinylated TNFα was purchased from Acro Biosystems. Binding reactions were conducted in 20 mM Hepes (pH 7.5) 10 mM MgCl2 0.015% Tween-20 0.05 mg/ml BSA 2% DMSO with 1 nM TNFα 0.5 nM Streptavidin-Tb and 80 nM probe. Test compounds were resuspended in DMSO and 3-fold serial dilutions were made at 100× final concentrations. Fluorescence was measured using λex=340 nm, λem=490, 520 nm on an SpectraMax M5e plate reader (Molecular Devices) after 16 hr incubation time. Dose responses were conducted in duplicate and normalized to the response with DMSO (high) and 100 nM (R)-3-(1-((3-chloro-7-fluoro-6-(2-(2-hydroxypropan-2-yl)pyrimidin-5-yl)-2-methyl-1,5-naphthyridin-4-yl)amino)ethyl)-4-fluorobenzonitrile (low) on each plate. IC50 values were determined by fitting to 4-parameter curves in GraphPad Prism.

[2] = target: T1, Folate receptor beta (Homo sapiens, UniProt P14207); test: Folate Receptor Binding Assay
Protocol: Table 15: Folate receptor binding was measured in black 96-well plates using a fluorescence polarization assay. A fluorescent probe consisting of a folate analog linked to Cy5 (FR-Cy) was custom synthesized. Test compounds were resuspended in DMSO and 3-fold serial dilutions were made from 300-0.015 μM (100× final concentrations). Binding reactions were conducted in 200 μl final volume in 20 mM Hepes (pH 7.5) 250 mM NaCl 0.0150 Tween-20 1% DMSO with 2.5 nM folate receptor beta (Acro Biosystems) and 2 nM probe. Fluorescence polarization was measured using λex=620 nm, λem=688 nm on an Envision plate reader (Perkin Elmer) after 2 hr incubation time. Dose responses were conducted in duplicate and normalized to the response with DMSO (high) and 1 μM folic acid (low) on each plate. IC50 values were determined by fitting to 4-parameter curves in GraphPad Prism.

[3] = target: T1, Folate receptor beta; test: Folate Receptor SPR Assay
Protocol: Table 16: Folate receptor SPR binding assays were conducted on a Biacore 8K instrument (Cytiva) using biotinylated folate receptor beta (Acro Biosystems). Briefly, folate receptor was immobilized at -550 RU on a streptavidin chip (Cytiva) in 10 mM HEPES pH 7.5, 150 mM NaCl, 0.05% Tween 20. Multi-cycle kinetic studies were conducted with 8 compound concentrations using 2-fold dilutions in 10 mM HEPES pH 7.5, 150 mM NaCl, 0.05 % Tween 20, 2% DMSO at 25° C. A flow rate or 75 μl/mmn with an association time of 120 s and a dissociation time of 600 s were used. Surfaces were regenerated with 4 M MgCl2 at 30 μl/min for 30 s. Data were fit to a 1:1 model to determine the reported binding parameters.

T1 sequence (P14207 whole entry): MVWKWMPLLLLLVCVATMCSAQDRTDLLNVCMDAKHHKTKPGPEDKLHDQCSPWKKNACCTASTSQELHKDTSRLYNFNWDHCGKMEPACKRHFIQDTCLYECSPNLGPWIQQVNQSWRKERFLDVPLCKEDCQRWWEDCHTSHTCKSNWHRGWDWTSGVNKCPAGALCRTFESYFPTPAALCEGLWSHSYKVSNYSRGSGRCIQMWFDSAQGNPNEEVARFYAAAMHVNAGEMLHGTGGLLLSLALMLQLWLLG
Sequence of Tumor necrosis factor (P01375 whole entry): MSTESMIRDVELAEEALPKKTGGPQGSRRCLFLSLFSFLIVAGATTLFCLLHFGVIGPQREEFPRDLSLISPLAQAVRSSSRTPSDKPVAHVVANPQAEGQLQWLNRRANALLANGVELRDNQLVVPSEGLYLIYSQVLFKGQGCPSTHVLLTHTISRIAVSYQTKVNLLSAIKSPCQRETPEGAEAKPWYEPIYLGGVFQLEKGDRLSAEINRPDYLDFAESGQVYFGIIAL

With `Cc1nc2cc(F)c(-c3cnc(N4CCN(C(=O)COCCn5cc(COCCOCCOCCOCCNC(=O)CC[C@H](NC(=O)[C@H]6CC[C@H](NCc7cnc8nc(N)nc(O)c8n7)CC6)C(=O)O)nn5)CC4)nc3)nc2c(N[C@H](C)c2ccccc2F)c1Cl` [US20250127913, Compound I-91] the IC50 [1] was 17.5 nM, the IC50 [2] was 138 nM and the Kd [3] was 0.201 nM.
